We go through 19 compounds from patent US20250276983A1, “COMPOUNDS AND METHODS FOR MODULATING HER2” (IAMBIC THERAPEUTICS, INC., priority 2022, published 2025).

Where two headings read alike, the source gives them in different places.

What all share (assay type): cell-based
The test system of one assay is BaF3_HER2WT cells. Kind of assay: Cell growth inhibition assay, BaF3_HER2WT. The settings on record: 3 days treatment, CellTiterGlo 2.0, read-out: HER2 WT IC50 (nM), cell growth inhibition.
A further assay relates to BaF3_EGFRWT cells. The assay can be described thus: Cell growth inhibition assay, BaF3_EGFRWT. The settings on record: 80 ng/mL recombinant human EGF, 3 days treatment, CellTiterGlo 2.0, read-out: EGFR WT IC50 (nM), cell growth inhibition.
In another assay the test system is BaF3_HER2YVMA cells. Kind of assay: Cell growth inhibition assay, BaF3_HER2YVMA. To be noted: BaF3_HER2YVMA cells, 3 days treatment, CellTiterGlo 2.0, read-out: HER2-YVMA IC50 (nM), cell growth inhibition.

In the case of `C=C(CN(C)C)C(=O)N1CC2CCC1CC2c1ccn2ncnc(Nc3ccc(Oc4ccn5ncnc5c4)c(C)c3)c12` (single isomer, unassigned) [Examples 135 and 136, second eluting isomer, 1-(5-(4-((4-([1,2,4]triazolo[1,5-a]pyridin-7-yloxy)-3-methylphenyl)amino)pyrrolo[2,1-f][1,2,4]triazin-5-yl)-2-azabicyclo[2.2.2]octan-2-yl)-2-((dimethylamino)methyl)prop-2-en-1-one], the values for the IC50 with BaF3_HER2WT cells, with BaF3_EGFRWT cells and in the assay with BaF3_HER2YVMA cells were less than 200 nM, less than 200 nM and 200 to 500 nM, respectively.
`Cc1cc(Nc2ncnn3ccc(C4CC5CCC4CN5C(=O)/C=C/CN(C)C)c23)ccc1Oc1ccn2ncnc2c1` (single isomer, unassigned) [Examples 137 and 138, second eluting isomer, (E)-1-(5-(4-((4-([1,2,4]triazolo[1,5-a]pyridin-7-yloxy)-3-methylphenyl)amino)pyrrolo[2,1-f][1,2,4]triazin-5-yl)-2-azabicyclo[2.2.2]octan-2-yl)-4-(dimethylamino)but-2-en-1-one]: the IC50 in the assay on BaF3_HER2WT cells (72 h) was 500 to 1500 nM; in the assay on BaF3_EGFRWT cells (72 h), 1500 to 5000 nM; with BaF3_HER2YVMA cells (72 h), 1500 to 5000 nM.
For the compound `C=CC(=O)N1CC2CCC1CC2c1ccn2ncnc(Nc3ccc(Oc4ccn5ncnc5c4)c(C)c3)c12` (single isomer, unassigned) [Examples 139 and 140, first eluting isomer, 1-(5-(4-((4-([1,2,4]triazolo[1,5-a]pyridin-7-yloxy)-3-methylphenyl)amino)pyrrolo[2,1-f][1,2,4]triazin-5-yl)-2-azabicyclo[2.2.2]octan-2-yl)prop-2-en-1-one], the IC50 with BaF3_HER2WT cells is less than 200 nM; with BaF3_EGFRWT cells (72 h), 1500 to 5000 nM; in the assay with BaF3_HER2YVMA cells it was less than 200 nM.
For `C=CC(=O)N1CC2CCC1CC2c1ccn2ncnc(Nc3ccc(Oc4ccn5ncnc5c4)c(C)c3)c12` (single isomer, unassigned) [Examples 139 and 140, second eluting isomer, 1-(5-(4-((4-([1,2,4]triazolo[1,5-a]pyridin-7-yloxy)-3-methylphenyl)amino)pyrrolo[2,1-f][1,2,4]triazin-5-yl)-2-azabicyclo[2.2.2]octan-2-yl)prop-2-en-1-one], the IC50 in the assay with BaF3_HER2WT cells was in the range of 500 to 1500 nM; with BaF3_EGFRWT cells it was 1500 to 5000 nM; in the assay with BaF3_HER2YVMA cells, 1500 to 5000 nM.
Take `C=C(CN(C)C)C(=O)N1CCCC(c2ccn3ncnc(Nc4ccc(Oc5ccn6ncnc6c5)c(C)c4)c23)CC1` (single isomer, unassigned) [Examples 143 and 144, first eluting isomer, 1-(4-(4-((4-([1,2,4]triazolo[1,5-a]pyridin-7-yloxy)-3-methylphenyl)amino)pyrrolo[2,1-f][1,2,4]triazin-5-yl)azepan-1-yl)-2-((dimethylamino)methyl)prop-2-en-1-one]: the results for the IC50 in the assay on BaF3_HER2WT cells (72 h), in the assay with BaF3_EGFRWT cells (72 h) and in the assay on BaF3_HER2YVMA cells were less than 200 nM, 1500 to 5000 nM and 500 to 1500 nM, respectively.
As to `C=C(CN(C)C)C(=O)N1CCCC(c2ccn3ncnc(Nc4ccc(Oc5ccn6ncnc6c5)c(C)c4)c23)CC1` (single isomer, unassigned) [Examples 143 and 144, second eluting isomer, 1-(4-(4-((4-([1,2,4]triazolo[1,5-a]pyridin-7-yloxy)-3-methylphenyl)amino)pyrrolo[2,1-f][1,2,4]triazin-5-yl)azepan-1-yl)-2-((dimethylamino)methyl)prop-2-en-1-one], the IC50 was less than 200 nM in the assay with BaF3_HER2WT cells, 1500 to 5000 nM in the assay with BaF3_EGFRWT cells and less than 200 nM in the assay on BaF3_HER2YVMA cells.
`Cc1cc(Nc2ncnn3ccc(C4CCCN(C(=O)C(F)Cl)CC4)c23)ccc1Oc1ccn2ncnc2c1` (single isomer, unassigned) [Examples 145, 146, 147 and 148, first eluting isomer, 1-(4-(4-((4-([1,2,4]triazolo[1,5-a]pyridin-7-yloxy)-3-methylphenyl)amino)pyrrolo[2,1-f][1,2,4]triazin-5-yl)azepan-1-yl)-2-chloro-2-fluoroethan-1-one]: the values for the IC50 with BaF3_HER2WT cells (72 h), with BaF3_EGFRWT cells and in the assay on BaF3_HER2YVMA cells were less than 200 nM, 1500 to 5000 nM and 200 to 500 nM, respectively.
Consider `Cc1cc(Nc2ncnn3ccc([C@@H]4CCCN(C(=O)[C@H](F)Cl)CC4)c23)ccc1Oc1ccn2ncnc2c1` (single isomer, unassigned) [Examples 145, 146, 147 and 148, fourth eluting isomer], for which the half-maximal inhibitory concentration (IC50) in the assay with BaF3_HER2WT cells (72 h) lay in the range of 200 to 500 nM; in the assay on BaF3_EGFRWT cells (72 h) it was 1500 to 5000 nM; with BaF3_HER2YVMA cells (72 h), 500 to 1500 nM.
As to `Cc1cc(Nc2ncnn3ccc(C4CCCN(C(=O)C(F)Cl)CC4)c23)ccc1Oc1ccn2ncnc2c1` (single isomer, unassigned) [Examples 145, 146, 147 and 148, second eluting isomer, 1-(4-(4-((4-([1,2,4]triazolo[1,5-a]pyridin-7-yloxy)-3-methylphenyl)amino)pyrrolo[2,1-f][1,2,4]triazin-5-yl)azepan-1-yl)-2-chloro-2-fluoroethan-1-one], the IC50 in the assay with BaF3_HER2WT cells was less than 200 nM; in the assay on BaF3_EGFRWT cells it was 500 to 1500 nM; with BaF3_HER2YVMA cells it was less than 200 nM.
On to `Cc1cc(Nc2ncnn3ccc(C4CCCN(C(=O)C(F)Cl)CC4)c23)ccc1Oc1ccn2ncnc2c1` (single isomer, unassigned) [Examples 145, 146, 147 and 148, third eluting isomer, 1-(4-(4-((4-([1,2,4]triazolo[1,5-a]pyridin-7-yloxy)-3-methylphenyl)amino)pyrrolo[2,1-f][1,2,4]triazin-5-yl)azepan-1-yl)-2-chloro-2-fluoroethan-1-one], for which the 50% inhibitory concentration (IC50) in the assay with BaF3_HER2WT cells fell in the range of 200 to 500 nM; with BaF3_EGFRWT cells, 1500 to 5000 nM; in the assay with BaF3_HER2YVMA cells it was 500 to 1500 nM.
For `Cc1cc(Nc2ncnn3ccc(C4CN(C(=O)/C=C/C5CCCN5C)C4)c23)ccc1Oc1ccn2ncnc2c1` (single isomer, unassigned) [Examples 171 and 172, second eluting isomer, (E)-1-(3-(4-((4-([1,2,4]triazolo[1,5-a]pyridin-7-yloxy)-3-methylphenyl)amino)pyrrolo[2,1-f][1,2,4]triazin-5-yl)azetidin-1-yl)-3-(1-methylpyrrolidin-2-yl)prop-2-en-1-one], the IC50 was less than 200 nM in the assay on BaF3_HER2WT cells (72 h), 1500 to 5000 nM with BaF3_EGFRWT cells (72 h) and less than 200 nM with BaF3_HER2YVMA cells (72 h).
Take `Cc1cc(Nc2ncnn3ccc(C4CCN(C(=O)[C@H](F)Cl)CC4)c23)ccc1Oc1ccn2ncnc2c1` (single isomer, unassigned) [Examples 173 and 174, first eluting isomer]: the IC50 is 200 to 500 nM in the assay with BaF3_HER2WT cells (72 h), 1500 to 5000 nM in the assay with BaF3_EGFRWT cells (72 h) and 1500 to 5000 nM in the assay on BaF3_HER2YVMA cells (72 h).
For `Cc1cc(Nc2ncnn3ccc(C4CCN(C(=O)[C@@H](F)Cl)CC4)c23)ccc1Oc1ccn2ncnc2c1` (single isomer, unassigned) [Examples 173 and 174, second eluting isomer], the IC50 in the assay with BaF3_HER2WT cells (72 h) is less than 200 nM; in the assay with BaF3_EGFRWT cells (72 h) it was 1500 to 5000 nM; in the assay on BaF3_HER2YVMA cells (72 h), less than 200 nM.
`Cc1cc(Nc2ncnn3ccc(C4CC5CCC4CN5C(=O)/C=C/CN(C)C)c23)ccc1Oc1ccn2ncnc2c1` (single isomer, unassigned; first eluting) [Examples 137 and 138, first eluting isomer]: the IC50 with BaF3_HER2WT cells was less than 200 nM; with BaF3_EGFRWT cells, 1500 to 5000 nM; with BaF3_HER2YVMA cells, 200 to 500 nM.
As for `C=CC(=O)N1CC(c2ccn3ncnc(Nc4ccc(Oc5ccn6ncnc6c5)c(C)c4)c23)C1` [Example 3, 1-(3-(4-((4-([1,2,4]triazolo[1,5-a]pyridin-7-yloxy)-3-methylphenyl)amino)pyrrolo[2,1-f][1,2,4]triazin-5-yl)azetidin-1-yl)prop-2-en-1-one], the IC50 in the assay with BaF3_HER2WT cells (72 h) is less than 200 nM; with BaF3_EGFRWT cells (72 h), 500 to 1500 nM; in the assay on BaF3_HER2YVMA cells (72 h) it was less than 200 nM.
As for `C=CC(=O)NC1CCN(C(=O)c2ccn3ncnc(Nc4ccc(Oc5ccn6ncnc6c5)c(C)c4)c23)C1` (stereo not drawn) [Example 4, N-(1-(4-((4-([1,2,4]triazolo[1,5-a]pyridin-7-yloxy)-3-methylphenyl)amino)pyrrolo[2,1-f][1,2,4]triazine-5-carbonyl)pyrrolidin-3-yl)acrylamide], the IC50 with BaF3_HER2WT cells (72 h) is less than 200 nM; with BaF3_EGFRWT cells (72 h), 1500 to 5000 nM; in the assay on BaF3_HER2YVMA cells (72 h) it was less than 200 nM.
In the case of `C=CC(=O)N1CCCC(c2ccn3ncnc(Nc4ccc(Oc5ccn6ncnc6c5)c(C)c4)c23)CC1` (stereo not drawn) [Example 9, 1-(4-(4-((4-([1,2,4]triazolo[1,5-a]pyridin-7-yloxy)-3-methylphenyl)amino)pyrrolo[2,1-f][1,2,4]triazin-5-yl)azepan-1-yl)prop-2-en-1-one], the IC50 with BaF3_HER2WT cells (72 h) was less than 200 nM; with BaF3_EGFRWT cells (72 h) it was 200 to 500 nM; with BaF3_HER2YVMA cells (72 h) it was less than 200 nM.
As for `C=CC(=O)N1CC2(C1)CN(c1ccn3ncnc(Nc4cnc(Oc5ccn6ncnc6c5)c(Cl)c4)c13)C2` [Example 15, 1-(6-(4-((6-([1,2,4]triazolo[1,5-a]pyridin-7-yloxy)-5-chloropyridin-3-yl)amino)pyrrolo[2,1-f][1,2,4]triazin-5-yl)-2,6-diazaspiro[3.3]heptan-2-yl)prop-2-en-1-one], the values for the IC50 in the assay on BaF3_HER2WT cells (72 h), with BaF3_EGFRWT cells (72 h) and in the assay on BaF3_HER2YVMA cells (72 h) were 1500 to 5000 nM, 1500 to 5000 nM and greater than 5000 nM, respectively.
Consider `C=CC(=O)N1CC2(CC(c3ccn4ncnc(Nc5ccc(Oc6ccn7ncnc7c6)c(C)c5)c34)C2)C1` [Example 17, 1-(6-(4-((4-([1,2,4]triazolo[1,5-a]pyridin-7-yloxy)-3-methylphenyl)amino)pyrrolo[2,1-f][1,2,4]triazin-5-yl)-2-azaspiro[3.3]heptan-2-yl)prop-2-en-1-one], for which the values for the 50% inhibitory concentration (IC50) in the assay with BaF3_HER2WT cells (72 h), in the assay on BaF3_EGFRWT cells (72 h) and in the assay on BaF3_HER2YVMA cells (72 h) were less than 200 nM, 1500 to 5000 nM and less than 200 nM, respectively.
